Source: ChEMBL document CHEMBL1201862, “PubChem BioAssay data set” (2004)
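Test compounds were applied to cells in 96-well plates for 48 hours at 5 doses. At the GI50, growth is halved.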 The source made the active and inactive calls. No stated cut-off is given here; in the data, active = GI50 up to about 1.1 µM and inactive = higher.

Assays:
Experiment in all cases: inhibition of tumour cell growth, NCI panel, 48 h
SF-268 = tested on: SF-268
UO-31 = tested on: UO-31
SK-MEL-5 = tested on: SK-MEL-5
HCC 2998 = tested on: HCC 2998
T47D = tested on: T47D
NCI-H23 = tested on: NCI-H23
MCF7 = tested on: MCF7
NCI-H460 = tested on: NCI-H460
DU-145 = tested on: DU-145
UACC-62 = tested on: UACC-62
KM12 = tested on: KM12
OVCAR-3 = tested on: OVCAR-3
NCI-H226 = tested on: NCI-H226
OVCAR-5 = tested on: OVCAR-5
K562 = tested on: K562
MDA-MB-231 = tested on: MDA-MB-231
SK-MEL-28 = tested on: SK-MEL-28
Hs-578T = tested on: Hs-578T
CAKI-1 = tested on: CAKI-1
M14 = tested on: M14
OVCAR-8 = tested on: OVCAR-8
HT-29 = tested on: HT-29
SNB-75 = tested on: SNB-75
A498 = tested on: A498
CCRF-CEM = tested on: CCRF-CEM
Malme-3M = tested on: Malme-3M
NCI-H522 = tested on: NCI-H522
HCT-116 = tested on: HCT-116
BT-549 = tested on: BT-549
ACHN = tested on: ACHN
SR = tested on: SR
MDA-MB-435 = tested on: MDA-MB-435
RXF 393 = tested on: RXF 393
SF-539 = tested on: SF-539
HL-60 = tested on: HL-60
COLO 205 = tested on: COLO 205
TK-10 = tested on: TK-10
NCI/ADR-RES = tested on: NCI/ADR-RES
U-251 = tested on: U-251
IGROV-1 = tested on: IGROV-1
OVCAR-4 = tested on: OVCAR-4
SN12C = tested on: SN12C
SK-MEL-2 = tested on: SK-MEL-2
LOX IMVI = tested on: LOX IMVI
786-0 = tested on: 786-0
SF-295 = tested on: SF-295
PC-3 = tested on: PC-3
SK-OV-3 = tested on: SK-OV-3
MDA-N = tested on: MDA-N
HOP-92 = tested on: HOP-92
HCT-15 = tested on: HCT-15
SNB-19 = tested on: SNB-19
EKVX = tested on: EKVX
RPMI-8226 = tested on: RPMI-8226
A549 = tested on: A549
SW-620 = tested on: SW-620
HOP-62 = tested on: HOP-62
UACC-257 = tested on: UACC-257
MOLT-4 = tested on: MOLT-4

[N-]=[N+]=Nc1ccc2c(c1)Sc1ccccc1N2CCCCCl
GI50 (SF-268): 41.9 µM (inactive) | GI50 (UO-31): > 100 µM (inactive) | GI50 (SK-MEL-5): 14.9 µM (inactive) | GI50 (HCC 2998): 61.8 µM (inactive) | GI50 (T47D): 44.7 µM (inactive) | GI50 (NCI-H23): 41.8 µM (inactive) | GI50 (MCF7): 14.9 µM (inactive) | GI50 (NCI-H460): 83.2 µM (inactive) | GI50 (DU-145): > 100 µM (inactive) | GI50 (UACC-62): 99.8 µM (inactive) | GI50 (KM12): 53.5 µM (inactive) | GI50 (OVCAR-3): 82.2 µM (inactive) | GI50 (NCI-H226): 48.9 µM (inactive) | GI50 (OVCAR-5): > 100 µM (inactive) | GI50 (K562): 14 µM (inactive) | GI50 (MDA-MB-231): > 100 µM (inactive) | GI50 (SK-MEL-28): > 100 µM (inactive) | GI50 (Hs-578T): 35.8 µM (inactive) | GI50 (CAKI-1): > 100 µM (inactive) | GI50 (M14): > 100 µM (inactive) | GI50 (OVCAR-8): 69.8 µM (inactive) | GI50 (HT-29): 20.1 µM (inactive) | GI50 (SNB-75): > 100 µM (inactive) | GI50 (A498): > 100 µM (inactive) | GI50 (CCRF-CEM): 36.7 µM (inactive) | GI50 (Malme-3M): 37.1 µM (inactive) | GI50 (NCI-H522): 40.7 µM (inactive) | GI50 (HCT-116): 30.2 µM (inactive) | GI50 (BT-549): 41.6 µM (inactive) | GI50 (ACHN): > 100 µM (inactive) | GI50 (SR): 30.9 µM (inactive) | GI50 (MDA-MB-435): 51.4 µM (inactive) | GI50 (RXF 393): 78.9 µM (inactive) | GI50 (SF-539): > 100 µM (inactive) | GI50 (HL-60): 15.3 µM (inactive) | GI50 (COLO 205): 18.7 µM (inactive) | GI50 (TK-10): > 100 µM (inactive) | GI50 (NCI/ADR-RES): > 100 µM (inactive) | GI50 (U-251): 23.7 µM (inactive) | GI50 (IGROV-1): > 100 µM (inactive) | GI50 (OVCAR-4): 80.4 µM (inactive) | GI50 (SN12C): > 100 µM (inactive) | GI50 (SK-MEL-2): 13.5 µM (inactive) | GI50 (LOX IMVI): 36.8 µM (inactive) | GI50 (786-0): > 100 µM (inactive) | GI50 (SF-295): > 100 µM (inactive) | GI50 (PC-3): 41.3 µM (inactive) | GI50 (SK-OV-3): > 100 µM (inactive) | GI50 (MDA-N): 48.4 µM (inactive) | GI50 (HOP-92): 32.2 µM (inactive) | GI50 (HCT-15): 81.3 µM | GI50 (SNB-19): > 100 µM (inactive) | GI50 (EKVX): 56 µM (inactive) | GI50 (RPMI-8226): 23.3 µM (inactive) | GI50 (A549): 35.2 µM (inactive) | GI50 (SW-620): 88.3 µM (inactive) | GI50 (HOP-62): > 100 µM (inactive) | GI50 (UACC-257): 71.9 µM (inactive) | GI50 (MOLT-4): 22 µM (inactive)
